From ChEMBL document CHEMBL5241090, “A comprehensive overview of β-carbolines and its derivatives as anticancer agents” (Eur J Med Chem, 2021)
Values after ≈ are worked out from the molar mass of the structure shown.

What was measured:
LoVo [1] = assay: Cytotoxicity against human LoVo cells by MTT assay; assay type: functional
HeLa [2] = assay: Cytotoxicity against human HeLa cells measured after 48 hrs by MTT assay; assay type: functional, cell-based
HT-29 [3] = assay: Cytotoxicity against human HT-29 cells measured after 48 hrs by MTT assay; assay type: functional, cell-based; conditions: HT-29, 48 h
HGC-27 = assay: Cytotoxicity against human HGC-27 cells measured after 48 hrs by MTT assay; assay type: functional, cell-based; conditions: HGC-27, 48 h
MCF7 [4] = assay: Cytotoxicity against human MCF7 cells measured after 48 hrs by MTT assay; assay type: functional, cell-based; conditions: MCF7, 48 h
PC-3 [5] = assay: Cytotoxicity against human PC-3 cells measured after 48 hrs by MTT assay; assay type: functional, cell-based; conditions: PC-3, 48 h
HL-60(TB) = assay: Antiproliferative activity against human HL-60(TB) cells; assay type: functional, cell-based
HeLa [6] = assay: Cytotoxicity against human HeLa cells measured after 24 hrs by MTT assay; assay type: functional, cell-based
HepG2 [7] = assay: Cytotoxicity against human HepG2 cells measured after 24 hrs by MTT assay; assay type: functional, cell-based; conditions: HepG2, 24 h
COLO 205 = assay: Antiproliferative activity against human COLO 205 cells; assay type: functional, cell-based
OVCAR-3 [8] = assay: Cytotoxicity against human OVCAR-3 cells by MTT assay; assay type: functional, cell-based
SW480 = assay: Cytotoxicity against human SW480 cells by MTT assay; assay type: functional, cell-based
PC-3 [9] = assay: Cytotoxicity against human PC-3 cells by MTT assay; assay type: functional, cell-based
1A9 = assay: Cytotoxicity against human 1A9 cells by SRB assay; assay type: functional, cell-based
KB [10] = assay: Cytotoxicity against human KB cells by SRB assay; assay type: functional, cell-based
SAOS-2 = assay: Cytotoxicity against human SAOS-2 cells by SRB assay; assay type: functional, cell-based
A549 [11] = assay: Cytotoxicity against human A549 cells by SRB assay; assay type: functional, cell-based
SK-MEL-2 = assay: Cytotoxicity against human SK-MEL-2 cells by SRB assay; assay type: functional, cell-based
[12] = Cytotoxicity against human U-87 MG cells by SRB assay; assay type: functional, cell-based, U-87MG ATCC
MCF7 [13] = assay: Cytotoxicity against human MCF7 cells by SRB assay; assay type: functional, cell-based
[14] = Cytotoxicity against mouse J558 cells assessed as growth inhibition measured upto 48 hrs by CCK-8 assay; assay type: functional, cell-based; conditions: J558, 48 h
Ramos = assay: Cytotoxicity against human Ramos RA.1 cells assessed as growth inhibition measured upto 48 hrs by CCK-8 assay; assay type: functional, cell-based
B16 = assay: Cytotoxicity against mouse B16 cells by MTT assay; assay type: functional, cell-based
HT-29 [15] = assay: Cytotoxicity against human HT-29 cells by MTT assay; assay type: functional, cell-based
HeLa [16] = assay: Cytotoxicity against human HeLa cells by MTT assay; assay type: functional, cell-based
HL-60 = assay: Cytotoxicity against human HL-60 cells; assay type: functional, cell-based; conditions: Homo sapiens, HL-60; read-out: IC50
PC-3 [17] = assay: Cytotoxicity against human PC-3 cells; assay type: functional, cell-based
SGC-7901 = assay: Cytotoxicity against human SGC-7901 cells; assay type: functional, cell-based
NCI-H460 [18] = assay: Antitumor activity against human NCI-H460 cells assessed as inhibition of cell growth measured after 48 hrs by spectrophotometric analysis; assay type: functional, cell-based; conditions: NCI-H460, 48 h
HT-29 [19] = assay: Antitumor activity against human HT-29 cells assessed as inhibition of cell growth measured after 48 hrs by spectrophotometric analysis; assay type: functional, cell-based; conditions: HT-29, 48 h
PC-3 [20] = assay: Antitumor activity against human PC-3 cells assessed as inhibition of cell growth measured after 48 hrs by spectrophotometric analysis; assay type: functional, cell-based; conditions: PC-3, 48 h
MCF7 [21] = assay: Antitumor activity against human MCF7 cells assessed as inhibition of cell growth measured after 48 hrs by spectrophotometric analysis; assay type: functional, cell-based; conditions: MCF7, 48 h
786-0 [22] = assay: Antitumor activity against human 786-0 cells assessed as inhibition of cell growth measured after 48 hrs by spectrophotometric analysis; assay type: functional, cell-based; conditions: 786-0, 48 h
U-251 = assay: Antitumor activity against human U-251 cells assessed as inhibition of cell growth measured after 48 hrs by spectrophotometric analysis; assay type: functional, cell-based; conditions: U-251, 48 h
NCI/ADR-RES = assay: Antitumor activity against human NCI-ADR-RES cells assessed as inhibition of cell growth measured after 48 hrs by spectrophotometric analysis; assay type: functional, cell-based
OVCAR-3 [23] = assay: Antitumor activity against human OVCAR-3 cells assessed as inhibition of cell growth measured after 48 hrs by spectrophotometric analysis; assay type: functional, cell-based; conditions: OVCAR-3, 48 h
HaCaT = assay: Antitumor activity against human HaCaT cells assessed as inhibition of cell growth measured after 48 hrs by spectrophotometric analysis; assay type: functional, cell-based
A549 [24] = assay: Cytotoxicity against human A549 cells; assay type: functional, cell-based
MCF7 [25] = assay: Cytotoxicity against human MCF7 cells; assay type: functional, cell-based
HCT-116 = assay: Cytotoxicity against human HCT-116 cells; assay type: functional, cell-based
HCT-15 = assay: Cytotoxicity against human HCT-15 cells; assay type: functional, cell-based
NCI-H460 [26] = assay: Cytotoxicity against human NCI-H460 cells; assay type: functional, cell-based
HeLa [27] = assay: Cytotoxicity against human HeLa cells assessed as cell viability incubated for 1 hr by spectrophotometry; assay type: functional, cell-based
HepG2 [28] = assay: Cytotoxicity against human HepG2 cells assessed as cell viability incubated for 1 hr by spectrophotometry; assay type: functional, cell-based; conditions: HepG2, 1 h
Bel-7402 = assay: Cytotoxicity against human Bel-7402 cells assessed as cell viability incubated for 1 hr by spectrophotometry; assay type: functional, cell-based; conditions: Bel-7402, 1 h
BGC-823 = assay: Cytotoxicity against human BGC-823 cells assessed as cell viability incubated for 1 hr by spectrophotometry; assay type: functional, cell-based; conditions: BGC-823, 1 h
KB [29] = assay: Cytotoxicity against human KB cells assessed as cell viability incubated for 1 hr by spectrophotometry; assay type: functional, cell-based
LoVo [30] = assay: Cytotoxicity against human LoVo cells assessed as cell viability incubated for 1 hr by spectrophotometry; assay type: functional, cell-based
A549 [31] = assay: Cytotoxicity against human A549 cells assessed as cell viability incubated for 1 hr by spectrophotometry; assay type: functional, cell-based; conditions: A549, 1 h
A-375 = assay: Cytotoxicity against human A-375 cells assessed as cell viability incubated for 1 hr by spectrophotometry; assay type: functional, cell-based; conditions: A-375, 1 h
786-0 [32] = assay: Cytotoxicity against human 786-0 cells assessed as cell viability incubated for 1 hr by spectrophotometry; assay type: functional, cell-based; conditions: 786-0, 1 h
HT-29 [33] = assay: Cytotoxicity against human HT-29 cells assessed as cell viability incubated for 1 hr by spectrophotometry; assay type: functional, cell-based; conditions: HT-29, 1 h
769-P = assay: Cytotoxicity against human 769-P cells assessed as cell viability incubated for 1 hr by spectrophotometry; assay type: functional, cell-based

CCCCn1c2ccccc2c2cc(C(=O)O)ncc21
IC5 (LoVo [1]): 11 µM

COc1cc(-c2nc(Cn3cc(CN4C(=O)c5ccccc5C4=O)nn3)cc3c2[nH]c2ccccc23)cc(OC)c1OC
IC50 (HeLa [2]): 3.67 µM | IC50 (HT-29 [3]): 3.67 µM | IC50 (HGC-27): 3.67 µM | IC50 (MCF7 [4]): 3.67 µM | IC50 (PC-3 [5]): 3.67 µM

COc1ccc2[nH]cc(-c3nccc4c3[nH]c3ccc(OC)cc34)c2c1
IC50 (HL-60(TB)): 4.2 µM

COC(=O)c1cc2c([nH]c3ccccc32)c(-c2cccc(OCc3cn(-c4ccc(Cl)c(Cl)c4)nn3)c2)n1
IC50 (HeLa [6]): 46 µM | IC50 (HepG2 [7]): 32 µM

CC(C)(C)OC(=O)n1cc(C/C=C(\c2cn(C(=O)OC(C)(C)C)c3ccccc23)C2NCCc3c2[nH]c2ccccc32)c2ccccc21 (centres undefined)
IC50 (COLO 205): 2.7 µM

CC(C)OC(=O)c1cc2c([nH]c3ccccc32)c(-c2cccc3ccccc23)n1
IC50 (OVCAR-3 [8]): 7.5 µM | IC50 (SW480): 2.7 µM | IC50 (PC-3 [9]): 7.1 µM

COc1ccc2c(c1)[nH]c1c(/C=C/c3ccc([N+](=O)[O-])cc3)nccc12
IC50 (1A9): 0.3 mg/L (≈ 0.869 µM) | IC50 (KB [10]): 0.3 mg/L (≈ 0.869 µM) | IC50 (SAOS-2): 0.3 mg/L (≈ 0.869 µM) | IC50 (A549 [11]): 0.3 mg/L (≈ 0.869 µM) | IC50 (SK-MEL-2): 0.3 mg/L (≈ 0.869 µM) | IC50 [12]: 0.3 mg/L (≈ 0.869 µM) | IC50 (MCF7 [13]): 0.3 mg/L (≈ 0.869 µM)

CCCCn1c2ccccc2c2cc[n+](Cc3ccc(F)cc3)c(-c3ccccc3Cl)c21
IC50 [14]: 8.02 µM | IC50 (Ramos): 9.08 µM

COc1cc(C(=O)/C=C/c2cc3c([nH]c4ccccc43)c(-c3cc(OC)c(OC)c(OC)c3)n2)cc(OC)c1OC
IC50 (B16): 5.3 µM | IC50 (HT-29 [15]): 5.3 µM | IC50 (HeLa [16]): 5.3 µM | IC50 (PC-3 [9]): 5.3 µM

COC(=O)NCCc1c(C(=O)C[C@]2(C)c3[nH]c4cc(OC)ccc4c3CCN2C(=O)OC)[nH]c2cc(OC)ccc12
IC50 (HL-60): 3.81 µM | IC50 (PC-3 [17]): 11.5 µM | IC50 (SGC-7901): 15.2 µM

c1ccc(-c2nc(-c3nnc4snnn34)cc3c2[nH]c2ccccc23)cc1
IC50 (NCI-H460 [18]): 0.08 µM | IC50 (HT-29 [19]): 0.08 µM | IC50 (PC-3 [20]): 0.08 µM | IC50 (MCF7 [21]): 0.08 µM | IC50 (786-0 [22]): 0.08 µM | IC50 (U-251): 0.08 µM | IC50 (NCI/ADR-RES): 0.08 µM | IC50 (OVCAR-3 [23]): 0.08 µM | IC50 (HaCaT): 0.08 µM

COc1ccc(OC)c(-c2nc(/C=C3/C(=O)N(Cc4ccccc4)c4ccc(Br)cc43)cc3c2[nH]c2ccccc23)c1
IC50 (A549 [24]): 1.43 µM | IC50 (MCF7 [25]): 1.43 µM | IC50 (HCT-116): 1.43 µM | IC50 (HCT-15): 1.43 µM | IC50 (NCI-H460 [26]): 1.43 µM

COc1ccc(/C=C/c2c3c(cc[n+]2Cc2ccccc2)c2ccccc2n3CCCc2ccccc2)cc1
IC50 (HeLa [27]): < 5 µM | IC50 (HepG2 [28]): < 5 µM | IC50 (Bel-7402): < 5 µM | IC50 (BGC-823): < 5 µM | IC50 (KB [29]): < 5 µM | IC50 (LoVo [30]): < 5 µM | IC50 (A549 [31]): < 5 µM | IC50 (A-375): < 5 µM | IC50 (786-0 [32]): < 5 µM | IC50 (HT-29 [33]): < 5 µM | IC50 (769-P): < 5 µM
